Data published in ChEMBL document CHEMBL3045153, “Screening of flavonoids for antitubercular activity and their structureactivity relationships” (2013).
≈ marks a conversion by molar mass, not a printed value. Calls of active or inactive are those of the source. No cut-off for these calls is given here.

system: Mycobacterium tuberculosis; assay: Antitubercular activity against Mycobacterium tuberculosis H37Rv ATCC 27294 at 100 ug/ml measured every 24 hr by BACTEC 460 radiometric assay; type: functional, organism-based; conditions: not given

| Structure (SMILES) | Activity |
| --- | --- |
| COc1ccc([C@@H]2CC(=O)c3c(O)cc(O[C@@H]4O[C@H](CO[C@@H]5O[C@@H](C)[C@H](O)[C@@H](O)[C@H]5O)[C@@H](O)[C@H](O)[C@H]4O)cc3O2)cc1O | inactive |
| C[C@H]1O[C@H](Oc2c(-c3ccc(O)cc3)oc3cc(O)cc(O)c3c2=O)[C@@H](O)[C@@H](O)[C@@H]1O | inactive |
| COc1ccc(-c2oc3cc(OC)c(OC)c(O)c3c(=O)c2OC)cc1O | inactive |
| O=c1cc(-c2ccc(O)cc2)oc2cc(O)cc(O)c12 | inactive |
| O=c1c(O)c(-c2ccccc2)oc2cc(O)cc(O)c12 | inactive |
| C[C@@H]1O[C@@H](OC[C@H]2O[C@@H](Oc3c(-c4ccc(O)c(O)c4)oc4cc(O)cc(O)c4c3=O)[C@H](O)[C@@H](O)[C@@H]2O)[C@H](O)[C@H](O)[C@H]1O | inactive |
| O=c1c(O)c(-c2ccc(O)cc2)oc2cc(O)cc(O)c12 | inactive |
| O=c1cc(-c2ccc(O)cc2)oc2cc(OC3O[C@H](CO)[C@@H](O)[C@H](O)[C@H]3O)cc(O)c12 (some centres not stated) | inactive |
| COc1c(O)cc2oc(-c3ccccc3)cc(=O)c2c1O | inactive |
| O=c1cc(-c2ccccc2)oc2cc(O)cc(O)c12 | inactive |

system: Mycobacterium tuberculosis; assay: Antitubercular activity against Mycobacterium tuberculosis H37Rv ATCC 27294 measured every 24 hr by BACTEC 460 radiometric assay; type: functional; conditions: H37Rv ATCC 27294, 24 h

| Structure (SMILES) | MIC |
| --- | --- |
| CN[C@@H]1[C@H](O[C@H]2[C@H](O[C@H]3[C@H](O)[C@@H](O)[C@H](N=C(N)N)[C@@H](O)[C@@H]3N=C(N)N)O[C@@H](C)[C@]2(O)C=O)O[C@@H](CO)[C@H](O)[C@H]1O [STREPTOMYCIN] | 2 µg/mL (≈ 3.44 µM) |
| O=c1c(O)c(-c2cc(O)c(O)c(O)c2)oc2cc(O)cc(O)c12 [MYRICETIN] | 50 µg/mL (≈ 157 µM) |
| CO[C@H]1/C=C/O[C@@]2(C)Oc3c(C)c(O)c4c(O)c(c(/C=N/N5CCN(C)CC5)c(O)c4c3C2=O)NC(=O)/C(C)=C\C=C\[C@H](C)[C@H](O)[C@@H](C)[C@@H](O)[C@@H](C)[C@H](OC(C)=O)[C@@H]1C [RIFAMPIN] | 2 µg/mL (≈ 2.43 µM) |
| O=c1cc(-c2ccc(O)c(O)c2)oc2cc(O)cc(O)c12 [LUTEOLIN] | 25 µg/mL (≈ 87.3 µM) |
| O=c1cc(-c2ccccc2)oc2cc(O)c(O)c(O)c12 [BAICALEIN] | 50 µg/mL (≈ 185 µM) |
| O=c1c(O)c(-c2ccc(O)c(O)c2)oc2cc(O)cc(O)c12 [QUERCETIN] | 50 µg/mL (≈ 165 µM) |
| COc1c(O)cc2oc(-c3ccc(O)cc3)cc(=O)c2c1O [HISPIDULIN] | 100 µg/mL (≈ 333 µM) |
